The results in this text go back to patent US12371428B2 (Exelixis, Inc., priority 2019, dated 2025).

Structures are written as SMILES. Where two headings read alike, the source gives them in different places. Some results are limits rather than exact numbers.

Assay [1] addresses Met (phospho-Met, HGF-stimulated PC-3 prostate cancer cells) (Homo sapiens (Human), UniProt P08581). The assay can be described thus: Met autophosphorylation ELISA in PC-3 cells (Example F). The class given is cell-based. The settings on record: cellular activity, read-out: c-Met IC50. The method in brief:
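IC50 values derive from a 4-parameter logistic fit of phospho-Met (panTyr) sandwich ELISA signals in PC-3 lysates, scaled between DMSO and reference-inhibitor wells. Cells, starved 3 h in serum-free medium, had 1 h compound exposure (8 doses, 0.3% DMSO) before 10 min stimulation with 100 ng/mL HGF.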
A general note: In an ELISA, binding on a coated surface is turned into a signal by an enzyme label.

Assay [2] has as its target Human MET (residues 956-1390) (Homo sapiens (Human), UniProt P08581). Kind of assay: Human Met kinase assay, HTRF KinEase (Example D-2). The class given is biochemical. The settings on record: read-out: c-Met IC50. How it is done: Kinase activity and compound inhibition were also investigated using the HTRF® KinEase assay (Cisbio Cat #62TKOPEB) per manufacturer's instructions. In short, compounds were delivered in 300 nL volumes at 10 different concentrations in DMSO (3% final) to empty 384-well assay plates (Corning cat #3824). A mixture of enzyme, […] biotynlated peptide substrate, and buffer in 10 μL volume was added. The assay was started upon the addition of ATP (at Km). The 10 μL reaction was incubated at room temperature. The reaction was stopped upon the addition of detection buffer containing streptavidin-XL665 ([…]) and TK antibody-Eu3+([…]). After a 60 min incubation at room temperature, the fluorescence at 665 nm and 620 nm was read on an Envision microplate reader (Perkin Elmer).
Kinase activity normalized to DMSO (100% activity) and reference compound at […] and (0% activity) was calculated using the fluorescence ratio […]. IC50 values were calculated by nonlinear regression analysis using a 4-parameter logistic curve fit in ActivityBase XE (IDBS).
Example D-2: Human MET (residues 956-1390; CarnaBio, 0.1 ng/well) was also incubated with enzymatic buffer (Cisbio) supplemented with 5 mM MgCl2, 1 mM DTT and 1 mM MnCl2. The mixture was added to the pre-plated compounds. […] The reaction was incubated at room temperature for 40 min and stopped upon the addition of SA-XL665 and TK-antibody both diluted in EDTA-containing kinase detection buffer (Cisbio). The kinase activity was calculated as stated above and the IC50 values were reported.

Assay [3] deals with Mer (phospho-Mer, MERTK-transfected 293A cells) (Homo sapiens (Human), UniProt Q12866). Kind of assay: Mer autophosphorylation ELISA in transient transfected 293A cells (Example H). It counts as cell-based. The settings on record: cellular activity. The method in brief: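 IC50 from 4-parameter logistic fit of phospho-Mer levels, quantified by ELISA against a phospho-Mer standard in lysates of MERTK-transfected 293A cells. Cells exposed 1 h to 8-point serial dilutions, serum-free, 0.3% DMSO; controls: DMSO (100%) and reference inhibitor (0%).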
Chain of Mer (phospho-Mer, MERTK-transfected 293A cells) (Q12866 21-999): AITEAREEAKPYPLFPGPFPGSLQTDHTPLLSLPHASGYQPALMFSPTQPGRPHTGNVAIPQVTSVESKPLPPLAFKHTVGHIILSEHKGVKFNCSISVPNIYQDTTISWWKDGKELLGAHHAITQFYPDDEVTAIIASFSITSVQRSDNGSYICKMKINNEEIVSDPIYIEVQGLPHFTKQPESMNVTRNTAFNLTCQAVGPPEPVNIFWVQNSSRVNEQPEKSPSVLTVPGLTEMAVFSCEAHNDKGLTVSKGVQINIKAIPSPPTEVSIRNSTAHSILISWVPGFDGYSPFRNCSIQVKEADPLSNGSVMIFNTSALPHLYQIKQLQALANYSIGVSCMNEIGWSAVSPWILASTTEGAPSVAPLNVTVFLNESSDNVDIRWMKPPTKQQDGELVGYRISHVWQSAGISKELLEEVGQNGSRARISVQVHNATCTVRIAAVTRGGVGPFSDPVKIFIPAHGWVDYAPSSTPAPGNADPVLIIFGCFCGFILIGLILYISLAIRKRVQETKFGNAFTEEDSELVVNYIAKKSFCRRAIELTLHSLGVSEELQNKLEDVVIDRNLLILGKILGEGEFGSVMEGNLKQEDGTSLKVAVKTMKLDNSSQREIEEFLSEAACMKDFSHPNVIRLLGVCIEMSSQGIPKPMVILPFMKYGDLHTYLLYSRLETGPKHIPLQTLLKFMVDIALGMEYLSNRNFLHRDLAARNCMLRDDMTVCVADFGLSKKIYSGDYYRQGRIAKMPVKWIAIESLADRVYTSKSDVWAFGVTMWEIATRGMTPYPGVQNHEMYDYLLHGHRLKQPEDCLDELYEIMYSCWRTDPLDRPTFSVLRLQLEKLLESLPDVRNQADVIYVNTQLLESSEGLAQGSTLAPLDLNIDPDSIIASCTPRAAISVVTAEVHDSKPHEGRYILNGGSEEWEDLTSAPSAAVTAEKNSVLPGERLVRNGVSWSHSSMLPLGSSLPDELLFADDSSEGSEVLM

In assay [4] the target is KDR (phospho-KDR, VEGF165-stimulated HUVEC cells) (Homo sapiens (Human), UniProt P35968). The assay can be described thus: KDR autophosphorylation ELISA in HUVEC cells (Example G). The class given is cell-based. Particulars: cellular activity. A digest of the protocol: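 Read-out is phospho-KDR measured by ELISA in lysates of VEGF165-stimulated (100 ng/mL, 5 min) HUVEC that were serum-starved 24 h and then pre-exposed 1 h to compound across 8 doses in 0.3% DMSO. Unstimulated lysates defined 0% and stimulated vehicle lysates 100% activity; IC50 values come from 4-parameter logistic regression.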
Chain of KDR (phospho-KDR, VEGF165-stimulated HUVEC cells) (P35968 20-1356): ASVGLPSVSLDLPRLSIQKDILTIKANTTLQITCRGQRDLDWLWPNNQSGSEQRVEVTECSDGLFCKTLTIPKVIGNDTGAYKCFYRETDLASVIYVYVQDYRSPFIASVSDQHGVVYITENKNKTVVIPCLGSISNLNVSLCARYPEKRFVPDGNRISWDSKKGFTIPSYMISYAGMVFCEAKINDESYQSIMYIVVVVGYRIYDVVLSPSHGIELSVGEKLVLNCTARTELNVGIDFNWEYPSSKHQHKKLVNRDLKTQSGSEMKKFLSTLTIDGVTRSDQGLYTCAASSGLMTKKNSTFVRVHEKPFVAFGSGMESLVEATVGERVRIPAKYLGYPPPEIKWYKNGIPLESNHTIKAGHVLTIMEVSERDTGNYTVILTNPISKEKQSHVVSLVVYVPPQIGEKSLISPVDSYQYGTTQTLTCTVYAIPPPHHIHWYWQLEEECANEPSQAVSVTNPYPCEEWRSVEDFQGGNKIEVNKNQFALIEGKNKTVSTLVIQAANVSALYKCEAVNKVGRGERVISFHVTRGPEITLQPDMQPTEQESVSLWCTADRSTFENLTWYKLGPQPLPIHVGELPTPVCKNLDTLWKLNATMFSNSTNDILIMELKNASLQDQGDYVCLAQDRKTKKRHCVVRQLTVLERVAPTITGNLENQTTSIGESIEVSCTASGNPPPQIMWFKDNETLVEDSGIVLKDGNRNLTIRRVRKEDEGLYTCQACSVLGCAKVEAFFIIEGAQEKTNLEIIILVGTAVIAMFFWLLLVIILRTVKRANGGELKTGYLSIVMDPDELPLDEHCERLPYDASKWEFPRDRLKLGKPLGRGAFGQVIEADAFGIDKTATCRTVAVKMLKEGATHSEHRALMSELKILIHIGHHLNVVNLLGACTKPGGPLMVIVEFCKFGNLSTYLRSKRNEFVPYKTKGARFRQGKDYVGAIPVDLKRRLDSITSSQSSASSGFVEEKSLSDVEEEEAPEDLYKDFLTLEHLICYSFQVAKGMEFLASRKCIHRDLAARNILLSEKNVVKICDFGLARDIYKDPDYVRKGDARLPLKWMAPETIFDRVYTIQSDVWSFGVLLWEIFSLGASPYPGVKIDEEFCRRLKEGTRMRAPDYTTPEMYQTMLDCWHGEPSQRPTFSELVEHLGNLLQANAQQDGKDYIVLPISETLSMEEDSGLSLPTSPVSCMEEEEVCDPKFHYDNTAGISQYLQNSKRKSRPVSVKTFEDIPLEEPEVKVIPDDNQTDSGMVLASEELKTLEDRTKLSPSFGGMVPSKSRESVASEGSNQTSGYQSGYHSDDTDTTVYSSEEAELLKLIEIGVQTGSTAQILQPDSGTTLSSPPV

Where [5] appears, read: Met autophosphorylation ELISA in PC-3 cells.
Where [6] appears, read: protocol of Example D-2 (other compounds).
Setting [7] is: Mer autophosphorylation ELISA in transient transfected 293A cells.
Where [8] appears, read: KDR autophosphorylation ELISA in HUVEC cells.

Chain of Human MET (residues 956-1390) (P08581 956-1390): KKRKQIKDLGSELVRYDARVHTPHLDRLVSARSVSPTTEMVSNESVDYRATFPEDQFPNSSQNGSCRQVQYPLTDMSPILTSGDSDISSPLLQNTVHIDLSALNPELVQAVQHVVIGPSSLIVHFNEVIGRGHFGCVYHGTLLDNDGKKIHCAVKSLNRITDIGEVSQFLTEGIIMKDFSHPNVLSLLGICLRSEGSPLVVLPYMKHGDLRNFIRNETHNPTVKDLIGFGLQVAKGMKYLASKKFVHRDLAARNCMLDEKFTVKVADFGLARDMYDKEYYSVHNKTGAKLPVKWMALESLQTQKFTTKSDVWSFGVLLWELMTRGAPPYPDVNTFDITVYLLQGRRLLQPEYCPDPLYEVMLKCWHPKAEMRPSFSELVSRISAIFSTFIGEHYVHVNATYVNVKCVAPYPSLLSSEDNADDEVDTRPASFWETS
Chain of Met (phospho-Met, HGF-stimulated PC-3 prostate cancer cells) (P08581 25-1390): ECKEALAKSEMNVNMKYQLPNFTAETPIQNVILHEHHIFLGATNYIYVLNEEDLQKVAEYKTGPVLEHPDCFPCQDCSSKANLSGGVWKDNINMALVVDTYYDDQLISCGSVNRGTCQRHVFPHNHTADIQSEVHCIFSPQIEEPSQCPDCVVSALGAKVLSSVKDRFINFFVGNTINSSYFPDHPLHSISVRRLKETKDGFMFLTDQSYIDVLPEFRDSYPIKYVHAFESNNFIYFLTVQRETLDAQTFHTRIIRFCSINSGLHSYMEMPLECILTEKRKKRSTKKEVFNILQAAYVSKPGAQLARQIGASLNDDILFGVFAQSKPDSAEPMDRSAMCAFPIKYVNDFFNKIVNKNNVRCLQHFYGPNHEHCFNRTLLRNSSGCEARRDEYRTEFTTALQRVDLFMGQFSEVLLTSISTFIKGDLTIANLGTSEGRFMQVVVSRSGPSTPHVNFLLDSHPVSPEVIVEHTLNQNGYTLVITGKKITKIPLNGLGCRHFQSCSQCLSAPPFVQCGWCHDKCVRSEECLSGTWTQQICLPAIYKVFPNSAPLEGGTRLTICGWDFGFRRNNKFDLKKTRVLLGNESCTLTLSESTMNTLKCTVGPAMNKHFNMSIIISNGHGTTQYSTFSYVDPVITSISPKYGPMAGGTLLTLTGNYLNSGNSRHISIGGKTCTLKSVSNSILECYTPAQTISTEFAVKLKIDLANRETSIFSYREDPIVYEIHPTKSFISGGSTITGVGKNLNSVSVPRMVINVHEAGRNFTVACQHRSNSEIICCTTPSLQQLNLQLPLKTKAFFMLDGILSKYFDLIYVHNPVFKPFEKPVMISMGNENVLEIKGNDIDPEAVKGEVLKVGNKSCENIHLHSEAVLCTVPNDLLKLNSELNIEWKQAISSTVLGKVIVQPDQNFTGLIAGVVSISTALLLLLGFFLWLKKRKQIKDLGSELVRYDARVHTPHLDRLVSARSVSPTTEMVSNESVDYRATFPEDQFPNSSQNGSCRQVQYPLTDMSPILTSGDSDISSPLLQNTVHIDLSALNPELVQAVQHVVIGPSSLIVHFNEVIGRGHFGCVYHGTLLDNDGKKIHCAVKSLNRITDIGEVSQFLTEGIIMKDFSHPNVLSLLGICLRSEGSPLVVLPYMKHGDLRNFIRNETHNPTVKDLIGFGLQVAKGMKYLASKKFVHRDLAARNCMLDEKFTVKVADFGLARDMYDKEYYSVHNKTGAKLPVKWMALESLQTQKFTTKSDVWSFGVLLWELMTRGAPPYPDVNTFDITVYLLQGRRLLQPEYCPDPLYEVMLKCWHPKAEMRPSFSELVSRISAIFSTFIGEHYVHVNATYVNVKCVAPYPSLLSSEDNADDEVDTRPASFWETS

In the case of `COc1cc2nccc(Oc3ccc(NC(=O)c4cn(CC(F)(F)F)cc(-c5ccc(F)cc5)c4=O)cc3F)c2nc1OC` [Compound 49, N-[4-[(6,7-Dimethoxy-1,5-naphthyridin-4-yl)oxy]-3-fluorophenyl]-5-(4-fluorophenyl)-4-oxo-1-(2,2,2-trifluoroethyl)pyridine-3-carboxamide], the half-maximal inhibitory concentration (IC50) (in general, the point on the concentration scale where inhibition reaches its midpoint) is less than 100 nM in assay [1] (setting [5]), less than 100 nM in assay [2] (setting [6]), less than 100 nM in assay [3] (setting [7]) and more than 300 nM in assay [4] (setting [8]).

With `COc1cc2nccc(Oc3ccc(NC(=O)c4cn(C5CCC5)cc(-c5ccc(F)cc5)c4=O)cc3F)c2nc1OC` [Compound 50, 1-Cyclobutyl-N-[4-[(6,7-dimethoxy-1,5-naphthyridin-4-yl)oxy]-3-fluorophenyl]-5-(4-fluorophenyl)-4-oxopyridine-3-carboxamide], the IC50 in assay [1] (setting [5]) was less than 100 nM; in assay [2] (setting [6]), less than 100 nM; in assay [3] (setting [7]), less than 100 nM; in assay [4] (setting [8]) it was 100 to 300 nM.

Turning to `COc1cc2nccc(Oc3ccc(NC(=O)c4cn(-c5cnn(C)c5)cc(-c5ccc(F)cc5)c4=O)cc3F)c2nc1OC` [Compound 51, N-[4-[(6,7-Dimethoxy-1,5-naphthyridin-4-yl)oxy]-3-fluorophenyl]-5-(4-fluorophenyl)-1-(1-methylpyrazol-4-yl)-4-oxopyridine-3-carboxamide], the half-maximal inhibitory concentration (IC50) in assay [1] (setting [5]) was less than 100 nM; in assay [2] (setting [6]), less than 100 nM; in assay [3] (setting [7]), less than 100 nM; in assay [4] (setting [8]), more than 300 nM.

As to `COc1cc2nccc(Oc3ccc(NC(=O)c4cn(C5CN(C(=O)OC(C)(C)C)C5)cc(-c5ccc(F)cc5)c4=O)cc3F)c2nc1OC` [Compound 114, tert-Butyl 3-[3-[[4-[(6,7-dimethoxy-1,5-naphthyridin-4-yl)oxy]-3-fluorophenyl]carbamoyl]-5-(4-fluorophenyl)-4-oxopyridin-1-yl]azetidine-1-carboxylate], in assay [2] (setting [6]), the IC50 was less than 100 nM.

On to `Cc1ncc(C(=O)Nc2ccc(Oc3ccnc4cc(Br)cnc34)c(F)c2)c(O)c1-c1ccc(F)cc1` [Compound 133, N-[4-[(7-Bromo-1,5-naphthyridin-4-yl)oxy]-3-fluorophenyl]-5-(4-fluorophenyl)-4-hydroxy-6-methylpyridine-3-carboxamide], for which the concentration for half-maximal inhibition (IC50) in assay [1] (setting [5]) is 100 to 300 nM; in assay [2] (setting [6]), less than 100 nM; in assay [3] (setting [7]), 100 to 300 nM; in assay [4] (setting [8]), 100 to 300 nM.

In the case of `COc1cc2nccc(Oc3ccc(NC(=O)c4cn(O)cc(-c5ccc(F)cc5)c4=O)cc3F)c2nc1OC` [Compound 134, N-[4-[(6,7-Dimethoxy-1,5-naphthyridin-4-yl)oxy]-3-fluorophenyl]-5-(4-fluorophenyl)-1-hydroxy-4-oxopyridine-3-carboxamide], the IC50 is more than 300 nM in assay [1] (setting [5]), less than 100 nM in assay [2] (setting [6]), 100 to 300 nM in assay [3] (setting [7]) and less than 100 nM in assay [4] (setting [8]).

For `COc1cc2nccc(Oc3ccc(NC(=O)c4cn(N=C(N(C)C)N(C)C)cc(-c5ccc(F)cc5)c4=O)cc3F)c2nc1OC` [Compound 137, 1-[bis(Dimethylamino)methylideneamino]-N-[4-[(6,7-dimethoxy-1,5-naphthyridin-4-yl)oxy]-3-fluorophenyl]-5-(4-fluorophenyl)-4-oxopyridine-3-carboxamide], the half-maximal inhibitory concentration (IC50) in assay [1] (setting [5]) is less than 100 nM; in assay [2] (setting [6]) it was less than 100 nM; in assay [3] (setting [7]), less than 100 nM; in assay [4] (setting [8]), 100 to 300 nM.

Consider `COc1cnc2c(Oc3ccc(NC(=O)c4cn(C(C)C)cc(-c5ccc(F)cc5)c4=O)cc3)ccnc2c1` [Compound 145, 5-(4-Fluorophenyl)-N-[4-[(7-methoxy-1,5-naphthyridin-4-yl)oxy]phenyl]-4-oxo-1-propan-2-ylpyridine-3-carboxamide], for which the 50% inhibitory concentration (IC50) in assay [1] (setting [5]), in assay [2] (setting [6]) and in assay [3] (setting [7]) was less than 100 nM each time.

As for `COc1cnc2c(Oc3ccc(NC(=O)c4c(C)nc(C)c(-c5ccc(F)cc5)c4O)cc3)ccnc2c1` [Compound 158, 5-(4-Fluorophenyl)-4-hydroxy-N-[4-[(7-methoxy-1,5-naphthyridin-4-yl)oxy]phenyl]-2,6-dimethylpyridine-3-carboxamide], the IC50 in assay [1] (setting [5]), in assay [2] (setting [6]), in assay [3] (setting [7]) and in assay [4] (setting [8]) was less than 100 nM throughout.

Consider `COc1cc2nccc(Oc3ccc(NC(=O)c4cn(CCn5ccnc5)cc(-c5ccc(F)cc5)c4=O)cc3F)c2nc1OC` [Compound 159, N-[4-[(6,7-Dimethoxy-1,5-naphthyridin-4-yl)oxy]-3-fluorophenyl]-5-(4-fluorophenyl)-1-(2-imidazol-1-ylethyl)-4-oxopyridine-3-carboxamide], for which the IC50 is 100 to 300 nM in assay [1] (setting [5]), less than 100 nM in assay [2] (setting [6]), less than 100 nM in assay [3] (setting [7]) and more than 300 nM in assay [4] (setting [8]).

On to `CNC(=O)c1cc2c(Oc3ccc(NC(=O)c4cnc(C)c(-c5ccc(F)cc5)c4O)cc3)ccnc2cc1OC` [Compound 540, 4-[4-[[5-(4-fluorophenyl)-4-hydroxy-6-methylpyridine-3-carbonyl]amino]phenoxy]-7-methoxy-N-methylquinoline-6-carboxamide], for which the IC50 was 100 to 300 nM in assay [1] (setting [5]), less than 100 nM in assay [2] (protocol of Example D-2), less than 100 nM in assay [3] (setting [7]) and less than 100 nM in assay [4] (setting [8]).

Turning to `COc1cnc2c(Oc3ccc(NC(=O)c4c(C)n(C)c(C)c(-c5ccc(F)c(C)c5)c4=O)cc3F)ccnc2c1` [Compound 819, N-[3-fluoro-4-[(7-methoxy-1,5-naphthyridin-4-yl)oxy]phenyl]-5-(4-fluoro-3-methylphenyl)-1,2,6-trimethyl-4-oxopyridine-3-carboxamide], the half-maximal inhibitory concentration (IC50) in assay [1] (PC-3 cells) was less than 100 nM; in assay [3] (transfected 293A cells), less than 100 nM; in assay [4] (HUVEC cells), more than 300 nM.

`COc1cnc2c(Oc3ccc(NC(=O)c4c(C)n(C)c(C)c(-c5ccc(F)c(F)c5)c4=O)cc3F)ccnc2c1` [Compound 820, 5-(3,4-difluorophenyl)-N-[3-fluoro-4-[(7-methoxy-1,5-naphthyridin-4-yl)oxy]phenyl]-1,2,6-trimethyl-4-oxopyridine-3-carboxamide]: the IC50 in assay [1] (PC-3 cells) is less than 100 nM; in assay [3] (transfected 293A cells), less than 100 nM; in assay [4] (HUVEC cells), more than 300 nM.

On to `COc1cc2nccc(Oc3ccc(NC(=O)c4c(C)n(C)c(C)c(-c5ccc(F)c(F)c5)c4=O)cc3F)c2nc1OC` [Compound 822, 5-(3,4-difluorophenyl)-N-[4-[(6,7-dimethoxy-1,5-naphthyridin-4-yl)oxy]-3-fluorophenyl]-1,2,6-trimethyl-4-oxopyridine-3-carboxamide], for which the IC50 is less than 100 nM in assay [1] (PC-3 cells), less than 100 nM in assay [3] (transfected 293A cells) and more than 300 nM in assay [4] (HUVEC cells).

With `COc1cc2nccc(Oc3ccc(NC(=O)c4c(C)n(C)c(C)c(-c5ccc(F)cc5F)c4=O)cc3F)c2nc1OC` [Compound 823, 5-(2,4-difluorophenyl)-N-[4-[(6,7-dimethoxy-1,5-naphthyridin-4-yl)oxy]-3-fluorophenyl]-1,2,6-trimethyl-4-oxopyridine-3-carboxamide], the IC50 in assay [1] (PC-3 cells) was less than 100 nM; in assay [3] (transfected 293A cells), less than 100 nM; in assay [4] (HUVEC cells), more than 300 nM.

`COc1cnc2c(Oc3ccc(NC(=O)c4c(C)n(C)c(C)c(-c5ccc(F)cc5F)c4=O)cc3F)ccnc2c1` [Compound 824, 5-(2,4-difluorophenyl)-N-[3-fluoro-4-[(7-methoxy-1,5-naphthyridin-4-yl)oxy]phenyl]-1,2,6-trimethyl-4-oxopyridine-3-carboxamide]: the half-inhibitory concentration (IC50) in assay [1] (PC-3 cells) was less than 100 nM; in assay [3] (transfected 293A cells), less than 100 nM; in assay [4] (HUVEC cells), more than 300 nM.
